Assays:
rat aorta = assay: Vasodilation effects on isolated blood vessels of rats (methoxamine-constricted aortic rings); assay type: cell-based; conditions: isolated rat aorta constricted with methoxamine (3 uM); read-out: Vasodilation Activity (in Vitro, rat aorta) (IC50)
Description: Male Sprague-Dawly rats (350-450 g, obtained from the Experimental Animal Team of the Korea Research Institute of Chemical Technology) were knocked unconscious by hitting the occipital region, sacrificed by cervical dislocation, and underwent thoracotomy. After being quickly removed, the thoracic aorta was deprived of the adipose tissue and cut into aortic rings of 3 mm width. The aorta was lightly rubbed with a modified Krebs Henseleit buffer (Physiological Salt Solution, PSS) soaked cotton club to remove the inner epithelial layer therefrom. While being suspended in an organ bath containing a physiological buffer, the vascular tissue was allowed to equilibrate under a resting tension of 2 g and then, stand for 1 hour at 37 °C for stabilization with a supply of a carbogen consisting of 95% O2-5% CO2.
Thereafter, the vascular tissue was constricted with 10^-5 M phenylephrine and washed several times with PSS and this procedure was repeated again to ensure the stable reacivity of vascular smooth muscle to repetitive constriction/dilatation.
In addition, 3x10^-6 M methoxamine was used to induce an intensive constriction in the vascular smooth muscle. When the vasoconstriction induced by the methoxamine reached and maintained a maximum, test compounds and controls were cumulatively added to the organ baths in concentrations of 1, 3, 10 and 30 uM so as to induce vasodilatation. As for the controls, they were Cromakalim and BMS-180448 (the compounds of the chemical formula 2), both known to be the first generation KATP activator with potent vasodilatation and cardioprotection effects.
Following the addition of the drugs, the change in the maximal constriction induced by methoxamine was calculated to plot a concentration-dilation response curve. Through a linear regression analysis, IC50, the drug concentration at which the vascular tissue is 50% dilated, was obtained for each drug.

[1] = Acute oral toxicity test in rats; conditions: rat, in vivo, single oral dose in 0.5% methyl cellulose, read-out: lethal dose (LD50) for oral administration
Method: In this test six-week old SPF SD rats were used with two rats assigned to each group. The compounds of examples 1, 2, 3, 5, 7, 8, 9, 10, 13, 14, 15, 19, 22, 23, 24, 25, 26, 28, 29, 30, 31, 32, 33, 34, 35, 36, 37, 38, 39, 40, 41, 44, 46, 47, 48, 49, 51, 52, 57, 58, 60, 62, 64, 67, 68, 69, 71 and 72 were suspended in 0.5% methyl cellulose, respectively, and administered orally at a single dose of 1 g/kg using a ball-tipped needle. The dosing volume was 10 ml/kg. […] All survivors at the end of the observation period underwent laparotomy under ether anesthesia and the blood samples were taken from the abdominal aorta for hematological tests and biochemical analysis. After sacrificing the animals, autopsy was performed for macroscopic observation of the organs and tissues. Tissue samples of vital organs from macroscopic legion were removed and fixed in 10% neutral buffered formalin solution, then processed by standard procedures for histopathology and examined under light microscope. There were no significant changes in clinical symptoms, body weight and mortalities. Also in hematology, serum chemistry parameters and macroscopic observation, no drug-related changes were observed.

HUVEC = assay: Inhibition of HUVEC tube formation on Matrigel; assay type: cell-based, Human; set-up: key: -: no effect; +/-: week effect; +: moderate effect; ++: strong effect
Method: HUVEC (Human umbilical vein endothelial cells, ATCC CRL-1730) were cultured, and tubulogenesis was induced in vascular endothelial cells by plating them onto the surface of Matrigel for several hours. The effects on tube formation of the test compounds were compared with the vehicle treated controls, then confirmed their in vitro anti-angiogenic effect indirectly.

[2] = test system: ischemic heart models of rats; assay: Heart protective (anti-ischemic) activity in ischemic heart models of anesthetized rats; assay type: in vivo; conditions: 45 min occlusion, 90 min reperfusion
Method: Male rats (350-450 g, obtained from the Experimental Animal Team of the Korea Research Institute of Chemical Technology) were anesthetized by the intraperitoneal injection of pentobarbital at a dose of 75 mg/kg. After trachetomy, the rats were rendered to respire artificially at a rate of 60/min with a stroke volume of 10 ml/kg. Cannulars were inserted into the fermoral vein and the fermoral artery and used for drug administration and blood pressure measurement, respectively.
In the ischemic myocardium damage models, the body temperature has an important influence on the results. To avoid the change in the body temperature, a body temperature measuring probe was inserted into the rectum of each rat and the body temperature was constantly kept at 37 °C with the aid of a homeothermic blanket control unit.
Afterwards, during testing, a continuous measurement was made of the mean arterial blood pressures and heart rates from the rats. For the measurement of the blood pressure, a pressure transducer, such as that manufactured by Grass Ins., MA, U.S.A., identified as Model Statham P23XL, was used. The heart rate was measured by a tachometer, such as that manufactured by Gould Inc., OH, U.S.A., identified as Biotachometer. In addition, all of the changes occurring were continuously recorded through the Gould 2000 chart recorder, manufactured by Gould Inc.
The left coronary artery was occluded according to the Selye H. method as follows. The rats underwent a left thoracotomy operation for partial opening of the chest and the right-side chest was pressurized by the middle finger of the left hand to push the heart out. Immediately after the left anterior descending coronary artery hereinafter referred to as (LAD) was carefully stitched using a suture needle with 5-0 silk ligature, the heart was then repositioned in the thoracic cavity while both ends of the ligature were situated outside. The opposite ligature ends were passed through a PE tube (PE100, 2.5 cm) and allowed to stand loose for 20 min for stabilization. Via the cannula inserted into the femoral vein, vehicles or drugs were administered into the rats which were rendered to stand for 30 min in order to sufficiently elicit the efficacies of the drugs. BMS-180448 was used as a control drug and the i.v.administration dose was 0.3 mg/kg for all test drugs of interest and the control drug.
Next, the PE tube which had the doubled strands of the ligature passed therethrough was pushed toward the heart and then, set upright by tightly pulling end regions of the ligature with a hemostatic pincette while pressing the coronary artery. The PE tube was allowed to stand for 45 min for the occlusion of the coronary artery, followed by the removal of the hemostatic pincette and then, by the reperfusion for 90 min.
After the reocclusion of the coronary artery in accordance with the above procedure, the rats were administered with 2 ml of a 1% Evans blue through an intravenous route. Subsequently, an excess of pentobarbital was intravenously injected to kill the rats, after which the heart was removed and then, deprived of the right ventricle and both atria. The left ventricle was cut horizontally to the heart apex into 5 or 6 slices which were weighed. From the surface of each slice, images were input with the aid of a Hi-scope into a computer installed with an image analyzing program (Image Pro Plus). From the images input into the computer, the area of the normal blood stream tissue region which appeared blue in a computer monitor and the area which appeared colorless were measured. The percentage of the colorless area to the total area of each slice was calculated and multiplied by the weight of each slice to determine the area at risk (AAR) of each slice. […]

SMILES	LD50 [1]	other results
CC1(C)Oc2ccc(C#N)cc2C(N2CCCC2=O)C1O (centres unmarked) [Cromakalim, reference compound]	–	IC50 (rat aorta): 0.067 µM
COC(OC)[C@]1(C)Oc2ccc([N+](=O)[O-])cc2[C@@H](NC(=NC#N)Nc2ccc(Cl)cc2)[C@@H]1O [Example 2, (2R, 3S, 4R)-N''-cyano-N-(6-nitro-3,4-dihydro-3-hydroxy-2-methyl-2-dimethoxymethyl-2H-benzopyran-4-yl)-N'-(4-chlorophenyl)guanidine]	> 1000 mg/kg	Inhibitory Effects on Tube Formation (HUVEC; 10 uM): +; Inhibitory Effects on Tube Formation (HUVEC; 100 uM): ++
COC(OC)[C@@]1(C)Oc2ccc([N+](=O)[O-])cc2[C@H](NC(=NC#N)Nc2ccc(Cl)cc2)[C@H]1O [Example 10, (2S, 3R, 4S)-N''-cyano-N-(6-nitro-3,4-dihydro-3-hydroxy-2-methyl-2-dimethoxymethyl-2H-benzopyran-4-yl)-N'-(4-chlorophenyl)guanidine]	> 1000 mg/kg	Inhibitory Effects on Tube Formation (HUVEC; 10 uM): +; Inhibitory Effects on Tube Formation (HUVEC; 100 uM): ++
COC(OC)[C@@]1(C)Oc2ccc([N+](=O)[O-])cc2[C@@H](NC(=NC#N)Nc2cccc(C(F)(F)F)c2)[C@@H]1O [Example 15, (2S, 3S, 4R)-N''-cyano-N-(6-nitro-3,4-dihydro-3-hydroxy-2-methyl-2-dimethoxymethyl-2H-benzopyran-4-yl)-N'-(3-trifluoromethylphenyl)guanidine]	> 1000 mg/kg	IC50 (rat aorta): 14.1 µM
COc1ccc(NC(=NC#N)N[C@H]2c3cc([N+](=O)[O-])ccc3O[C@](C)(C(OC)OC)[C@@H]2O)cc1 [Example 16, (2S, 3R, 4S)-N''-cyano-N-(6-nitro-3,4-dihydro-3-hydroxy-2-methyl-2-dimethoxymethyl-2H-benzopyran-9-yl)-N'-(4-methoxyphenyl) guanidine]	–	Inhibitory Effects on Tube Formation (HUVEC; 10 uM): +/-; Inhibitory Effects on Tube Formation (HUVEC; 100 uM): +/-
COC(OC)[C@@]1(C)Oc2ccc(NC(C)=O)cc2[C@@H](NC(=NC#N)NCc2ccccc2)[C@@H]1O [Example 41]	> 1000 mg/kg	IC50 (rat aorta): > 30 µM; Anti-ischemic Activity (in vivo, rats) (0.3 mg/kg i.v.) IZ/AAR (%) [2]: 30.25%
COC(OC)[C@@]1(C)Oc2ccc([N+](=O)[O-])cc2[C@@H](NC(=NC#N)NCc2cccc([N+](=O)[O-])c2)[C@@H]1O [Example 52, (2S, 3S, 4R)-N''-cyano-N-(6-nitro-3,4-dihydro-3-hydroxy-2-methyl-2-dimethoxymethyl-2H-benzopyran-4-yl)-N'-(3-nitrobenzyl)guanidine]	> 1000 mg/kg	Inhibitory Effects on Tube Formation (HUVEC; 10 uM): +/-; Inhibitory Effects on Tube Formation (HUVEC; 100 uM): ++
COC(OC)[C@]1(C)Oc2ccc(N)cc2[C@H](NC(=NC#N)NCc2ccccc2)[C@H]1O [Example 58, (2R, 3R, 4S)-N''-cyano-N-(6-amino-3,4-dihydro-3-hydroxy-2-methyl-2-dimethoxymethyl-2H-benzopyran-4-yl)-N'-benzylguanidine]	> 1000 mg/kg	–
C[C@]1(C2OCCO2)Oc2ccc([N+](=O)[O-])cc2[C@@H](NC(=NC#N)NCc2ccccc2)[C@@H]1O [Example 60, (2S, 3S, 4R)-N''-cyano-N-(6-nitro-3,4-dihydro-3-hydroxy-2-methyl-2-([1,3]dioxolan-2-yl)-2H-benzopyran-4-yl)-N'-benzylguanidine]	> 1000 mg/kg	–
C[C@]1(C2OCCCO2)Oc2ccc([N+](=O)[O-])cc2[C@@H](NC(=NC#N)NCc2ccccc2)[C@@H]1O [Example 62, (2S, 3S, 4R) -N''-cyano-N-(6-nitro-3,4-dihydro-3-hydroxy-2-methyl-2-([1,3]dioxan-2-yl)-2H-benzopyran-4-yl)-N'-benzylguanidine]	> 1000 mg/kg	–
CC1(C)COC([C@@]2(C)Oc3ccc([N+](=O)[O-])cc3[C@@H](NC(=NC#N)NCc3ccccc3)[C@@H]2O)OC1 [Example 64, (2S, 3S, 4R)-N''-cyano-N-(6-nitro-3,9-dihydro-3-hydroxy-2-methyl-2-([1,3]-5,5-dimethyldioxan-2-yl)-2H-benzopyran-4-yl)-N'-benzyl guanidine]	> 1000 mg/kg	–
CCOC(OCC)[C@@]1(C)Oc2ccc(N)cc2[C@@H](NC(=NC#N)NCc2ccccc2)[C@@H]1O [Example 67, (2S, 3S, 4R)-N''-cyano-N-(6-amino-3,4-dihydro-3-hydroxy-2-methyl-2-diethoxymethyl-2H-benzopyran-4-yl)-N'-benzylguanidine]	> 1000 mg/kg	–
COC(=O)c1ccc2c(c1)[C@@H](NC(=NC#N)NCc1ccccc1)[C@H](O)[C@@](C)(C(OC)OC)O2 [Example 68, (2S, 3S, 4R)-N''-cyano-N-(6-methoxycarbonyl-3,4-dihydro-3-hydroxy-2-methyl-2-dimthoxymethyl-2H-benzopyran-4-yl)-N'-benzylguanidine]	> 1000 mg/kg	–
COC(=O)c1ccc2c(c1)[C@@H](NC(=NC#N)NCc1ccccc1)[C@H](O)[C@](C)(C(OC)OC)O2 [Example 69, (2R, 3S, 4R)-N''-cyano-N (6-methoxycarbonyl-3,4-dihydro-3-hydroxy-2-methyl-2-dimthoxymethyl-2H-benzopyran-4-yl)-N'-benzylguanidine]	> 1000 mg/kg	–
COC(OC)[C@@]1(C)Oc2c(N)cccc2[C@@H](NC(=NC#N)NCc2ccccc2)[C@@H]1O [Example 71, (2S, 3S, 4R)-N''-cyano-N-(8-amino-3,4-dihydro-3-hydroxy-2-methyl-2-dimthoxymethyl-2H-benzopyran-4-yl)-N'-benzylguanidine]	> 1000 mg/kg	–
COC(OC)[C@]1(C)Oc2c(N)cccc2[C@@H](NC(=NC#N)NCc2ccccc2)[C@@H]1O [Example 72, (2R, 3S, 4R)-N''-cyano-N-(8-amino-3,4-dihydro-3-hydroxy-2-methyl-2-dimthoxymethyl-2H-benzopyran-4-yl)-N'-benzylguanidine]	> 1000 mg/kg	–
